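Method: 48-hour compound exposure of cells in 96-well plates, five concentrations, linear interpolation of endpoints. TGI marks complete inhibition of growth.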
Key:
Test in all cases: inhibition of tumour cell growth, NCI panel, 48 h
KM20L2 colon = system: KM20L2 colon
SW-620 colon = system: SW-620 colon
UACC-257 melanoma = system: UACC-257 melanoma
UACC-62 melanoma = system: UACC-62 melanoma
TK-10 renal = system: TK-10 renal
ACHN renal = system: ACHN renal
SN12C renal = system: SN12C renal
NCI-H522 lung = system: NCI-H522 lung
CAKI-1 renal = system: CAKI-1 renal
KM12 colon = system: KM12 colon
LXFL 529 NSCLC = system: LXFL 529 NSCLC
NCI-H226 lung = system: NCI-H226 lung
LOX IMVI melanoma = system: LOX IMVI melanoma
NCI-H23 lung = system: NCI-H23 lung
HCT-15 colon = system: HCT-15 colon
HCC-2998 colon = system: HCC-2998 colon
EKVX NSCLC = system: EKVX NSCLC
RXF 393 renal = system: RXF 393 renal
K-562 leukemia = system: K-562 leukemia
OVCAR-4 ovarian = system: OVCAR-4 ovarian
UO-31 renal = system: UO-31 renal
A549 NSCLC = system: A549 NSCLC
SNB-19 CNS = system: SNB-19 CNS
SF-539 CNS = system: SF-539 CNS
XF 498 CNS = system: XF 498 CNS
IGROV1 ovarian = system: IGROV1 ovarian
HOP-18 NSCLC = system: HOP-18 NSCLC
MOLT-4 leukemia = system: MOLT-4 leukemia
U251 CNS = system: U251 CNS
SF-268 CNS = system: SF-268 CNS
SNB-78 CNS = system: SNB-78 CNS
786-0 renal = system: 786-0 renal
A498 renal = system: A498 renal
OVCAR-5 ovarian = system: OVCAR-5 ovarian
RPMI-8226 leukemia = system: RPMI-8226 leukemia
SK-MEL-2 melanoma = system: SK-MEL-2 melanoma
COLO 205 colon = system: COLO 205 colon
HT29 colon = system: HT29 colon
NCI-H460 lung = system: NCI-H460 lung
M14 melanoma = system: M14 melanoma
SK-MEL-28 melanoma = system: SK-MEL-28 melanoma
DMS 114 small cell lung = system: DMS 114 small cell lung
MALME-3M melanoma = system: MALME-3M melanoma
SK-MEL-5 melanoma = system: SK-MEL-5 melanoma
SR leukemia = system: SR leukemia
SNB-75 CNS = system: SNB-75 CNS
CCRF-CEM leukemia = system: CCRF-CEM leukemia
HL-60(TB) leukemia = system: HL-60(TB) leukemia
HCT-116 colon = system: HCT-116 colon
DLD-1 colon = system: DLD-1 colon
M19-MEL melanoma = system: M19-MEL melanoma
SK-OV-3 ovarian = system: SK-OV-3 ovarian
OVCAR-3 ovarian = system: OVCAR-3 ovarian
HOP-92 NSCLC = system: HOP-92 NSCLC
OVCAR-8 ovarian = system: OVCAR-8 ovarian
DMS 273 small cell lung = system: DMS 273 small cell lung
SF-295 CNS = system: SF-295 CNS
HOP-62 NSCLC = system: HOP-62 NSCLC

Structure (SMILES): Cn1c(=O)c2c3ccccc3c(C(=O)c3ccccc3)n2c2ccccc21
- TGI (KM20L2 colon): > 100 µM
- TGI (SW-620 colon): > 100 µM
- TGI (UACC-257 melanoma): > 100 µM
- TGI (UACC-62 melanoma): > 30.1 µM
- TGI (TK-10 renal): > 96.6 µM
- TGI (ACHN renal): > 100 µM
- TGI (SN12C renal): > 100 µM
- TGI (NCI-H522 lung): > 100 µM
- TGI (CAKI-1 renal): > 100 µM
- TGI (KM12 colon): > 100 µM
- TGI (LXFL 529 NSCLC): > 100 µM
- TGI (NCI-H226 lung): > 100 µM
- TGI (LOX IMVI melanoma): > 100 µM
- TGI (NCI-H23 lung): > 100 µM
- TGI (HCT-15 colon): > 100 µM
- TGI (HCC-2998 colon): > 100 µM
- TGI (EKVX NSCLC): > 100 µM
- TGI (RXF 393 renal): > 100 µM
- TGI (K-562 leukemia): > 100 µM
- TGI (OVCAR-4 ovarian): > 100 µM
- TGI (UO-31 renal): > 100 µM
- TGI (A549 NSCLC): > 100 µM
- TGI (SNB-19 CNS): > 100 µM
- TGI (SF-539 CNS): > 100 µM
- TGI (XF 498 CNS): > 100 µM
- TGI (IGROV1 ovarian): > 100 µM
- TGI (HOP-18 NSCLC): > 100 µM
- TGI (MOLT-4 leukemia): > 100 µM
- TGI (U251 CNS): > 100 µM
- TGI (SF-268 CNS): > 100 µM
- TGI (SNB-78 CNS): > 100 µM
- TGI (786-0 renal): > 100 µM
- TGI (A498 renal): > 100 µM
- TGI (OVCAR-5 ovarian): > 100 µM
- TGI (RPMI-8226 leukemia): > 100 µM
- TGI (SK-MEL-2 melanoma): > 100 µM
- TGI (COLO 205 colon): > 100 µM
- TGI (HT29 colon): > 100 µM
- TGI (NCI-H460 lung): > 100 µM
- TGI (M14 melanoma): > 100 µM
- TGI (SK-MEL-28 melanoma): > 100 µM
- TGI (DMS 114 small cell lung): > 100 µM
- TGI (MALME-3M melanoma): > 100 µM
- TGI (SK-MEL-5 melanoma): > 100 µM
- TGI (SR leukemia): > 100 µM
- TGI (SNB-75 CNS): 15 µM
- TGI (CCRF-CEM leukemia): > 31.6 µM
- TGI (HL-60(TB) leukemia): > 100 µM
- TGI (HCT-116 colon): > 100 µM
- TGI (DLD-1 colon): > 100 µM
- TGI (M19-MEL melanoma): > 100 µM
- TGI (SK-OV-3 ovarian): > 100 µM
- TGI (OVCAR-3 ovarian): > 100 µM
- TGI (HOP-92 NSCLC): > 84.2 µM
- TGI (OVCAR-8 ovarian): > 100 µM
- TGI (DMS 273 small cell lung): > 100 µM
- TGI (SF-295 CNS): > 100 µM
- TGI (HOP-62 NSCLC): > 100 µM

Structure (SMILES): CC(=O)N(C)c1ccc2ncccc2c1[N+](=O)[O-]
- TGI (KM20L2 colon): > 100 µM
- TGI (SW-620 colon): > 100 µM
- TGI (UACC-257 melanoma): > 100 µM
- TGI (UACC-62 melanoma): > 100 µM
- TGI (TK-10 renal): > 100 µM
- TGI (ACHN renal): > 100 µM
- TGI (SN12C renal): > 100 µM
- TGI (CAKI-1 renal): > 100 µM
- TGI (KM12 colon): > 100 µM
- TGI (LXFL 529 NSCLC): > 100 µM
- TGI (NCI-H226 lung): > 100 µM
- TGI (LOX IMVI melanoma): > 100 µM
- TGI (NCI-H23 lung): > 100 µM
- TGI (HCT-15 colon): > 100 µM
- TGI (HCC-2998 colon): > 100 µM
- TGI (EKVX NSCLC): > 100 µM
- TGI (RXF 393 renal): > 100 µM
- TGI (K-562 leukemia): > 100 µM
- TGI (OVCAR-4 ovarian): > 100 µM
- TGI (UO-31 renal): > 100 µM
- TGI (A549 NSCLC): > 100 µM
- TGI (SNB-19 CNS): > 100 µM
- TGI (SF-539 CNS): > 100 µM
- TGI (XF 498 CNS): > 100 µM
- TGI (IGROV1 ovarian): > 100 µM
- TGI (HOP-18 NSCLC): > 100 µM
- TGI (MOLT-4 leukemia): > 100 µM
- TGI (SF-268 CNS): > 100 µM
- TGI (SNB-78 CNS): > 100 µM
- TGI (786-0 renal): > 100 µM
- TGI (A498 renal): > 100 µM
- TGI (OVCAR-5 ovarian): > 100 µM
- TGI (RPMI-8226 leukemia): > 100 µM
- TGI (SK-MEL-2 melanoma): > 100 µM
- TGI (HT29 colon): > 100 µM
- TGI (NCI-H460 lung): > 100 µM
- TGI (M14 melanoma): > 100 µM
- TGI (SK-MEL-28 melanoma): > 100 µM
- TGI (DMS 114 small cell lung): > 100 µM
- TGI (MALME-3M melanoma): > 100 µM
- TGI (SK-MEL-5 melanoma): > 100 µM
- TGI (SR leukemia): > 100 µM
- TGI (SNB-75 CNS): > 100 µM
- TGI (CCRF-CEM leukemia): > 100 µM
- TGI (HL-60(TB) leukemia): > 100 µM
- TGI (HCT-116 colon): > 100 µM
- TGI (DLD-1 colon): > 100 µM
- TGI (M19-MEL melanoma): > 100 µM
- TGI (OVCAR-3 ovarian): > 100 µM
- TGI (HOP-92 NSCLC): > 100 µM
- TGI (OVCAR-8 ovarian): > 100 µM
- TGI (DMS 273 small cell lung): > 100 µM
- TGI (SF-295 CNS): > 100 µM
- TGI (HOP-62 NSCLC): > 100 µM

Reference: PubChem BioAssay (NCI)
